Source: patent US10940139B2, “Compounds that interact with the Ras superfamily for the treatment of cancers, inflammatory diseases, rasopathies, and fibrotic disease” (Shy Therapeutics LLC, priority 2017, dated 2021)

Experiments:
K-Ras (Q61H/G12C) [1] = target: T1, K-Ras (Q61H/G12C) (Homo sapiens (Human), UniProt P01116, G12C/Q61H); experiment: MicroScale Thermophoresis (MST), GTP affinity for binding domain
Source text: (§1) For the first time, the affinity of GTP for the GTP binding domain of K-Ras utilizing a Scintillation Proximity Assay (SPA) and MicroScale Thermophoresis (MST) has been measured and disclosed herein. These methods were not available when Wittinghofer and colleagues undertook their studies.
(§2) This therefore led to the novel, unanticipated conclusion that compounds such as small molecules could be discovered that would bind to a Ras GTP binding domain and compete with the binding of GTP to Ras.
(§3) See Khawaja et al., “Scintillation proximity assay in lead discovery”, Expert Opin. Drug Discov., 2008 November; 3(11):1267-80 regarding SPA procedures. See the following references regarding MST technology: Wienken et al., Nature Communications (2010), Protein binding assays in biological liquids using MicroScale Thermophoresis; Jerabek-Willemsen et al., ASSAY and Drug Development Technologies (2011), Molecular interaction studies using MicroScale Thermophoresis; Lin et al., Cell (2012), Inhibition of basal FGF receptor signaling by dimeric Grb2; Seidel et al., Angewandte Chemie (2012), Label-Free MicroScale Thermophoresis discriminates sites and affinity of protein-ligand binding; Seidel et al., Methods (2012), MicroScale Thermophoresis quantifies biomolecular interactions under previously challenging conditions; Parker & Newstead, Nature (2014), Molecular basis of nitrate uptake by the plant nitrate transporter NRT1.1; and Jerabek-Willemsen et al., Journal of Molecular Structure (2014), MicroScale Thermophoresis: Interaction analysis and beyond.

KRas wild type [2] = target: T2, KRas wild type (Homo sapiens (Human), UniProt P01116); experiment: as above
T2 sequence (P01116-2 other isoform, or with tags, fused parts or gaps): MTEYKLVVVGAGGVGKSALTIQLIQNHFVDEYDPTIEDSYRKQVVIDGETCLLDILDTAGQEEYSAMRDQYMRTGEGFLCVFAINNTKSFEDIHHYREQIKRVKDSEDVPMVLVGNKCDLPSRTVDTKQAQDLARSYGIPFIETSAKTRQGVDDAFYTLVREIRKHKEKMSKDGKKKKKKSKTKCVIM
Source text: as §1, §2, §3

K-Ras (Q61H/G12D) [3] = target: T3, K-Ras (Q61H/G12D) (Homo sapiens (Human), UniProt P01116, G12D/Q61H); experiment: as above
T3 sequence (P01116-2 other isoform, or with tags, fused parts or gaps G12D/Q61H): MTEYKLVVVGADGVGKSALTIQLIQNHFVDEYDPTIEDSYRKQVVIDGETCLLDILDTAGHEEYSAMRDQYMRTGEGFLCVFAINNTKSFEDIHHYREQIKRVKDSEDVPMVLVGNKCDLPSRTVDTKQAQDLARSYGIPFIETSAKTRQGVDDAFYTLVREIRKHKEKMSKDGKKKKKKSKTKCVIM
Source text: as §1, §2, §3

K-Ras (G12C) [4] = target: T4, K-Ras (G12C) (Homo sapiens (Human), UniProt P01116, G12C); experiment: as above
T4 sequence (P01116-2 other isoform, or with tags, fused parts or gaps G12C): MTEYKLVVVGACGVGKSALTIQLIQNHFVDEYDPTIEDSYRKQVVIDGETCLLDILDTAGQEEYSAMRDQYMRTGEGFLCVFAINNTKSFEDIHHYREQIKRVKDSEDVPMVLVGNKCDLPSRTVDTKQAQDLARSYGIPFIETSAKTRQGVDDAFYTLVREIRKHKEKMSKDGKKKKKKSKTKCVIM
Source text: as §1, §2, §3

K-Ras (G12D) [5] = target: T5, K-Ras (G12D) (Homo sapiens (Human), UniProt P01116, G12D); experiment: as above
T5 sequence (P01116-2 other isoform, or with tags, fused parts or gaps G12D): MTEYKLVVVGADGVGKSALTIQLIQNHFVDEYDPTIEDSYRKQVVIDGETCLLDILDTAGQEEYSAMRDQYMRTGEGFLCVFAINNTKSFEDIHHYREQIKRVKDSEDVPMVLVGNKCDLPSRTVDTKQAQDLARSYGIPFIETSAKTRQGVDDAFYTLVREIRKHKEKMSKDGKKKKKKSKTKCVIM
Source text: as §1, §2, §3

K-Ras (Q61H) [6] = target: T6, K-Ras (Q61H) (Homo sapiens (Human), UniProt P01116, Q61H); experiment: as above
T6 sequence (P01116-2 other isoform, or with tags, fused parts or gaps Q61H): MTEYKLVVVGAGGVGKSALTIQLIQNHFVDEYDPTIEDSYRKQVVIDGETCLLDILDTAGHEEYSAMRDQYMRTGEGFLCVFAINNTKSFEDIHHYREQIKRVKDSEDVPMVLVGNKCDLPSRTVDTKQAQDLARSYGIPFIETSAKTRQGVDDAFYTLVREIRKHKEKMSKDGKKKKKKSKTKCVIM
Source text: as §1, §2, §3

[7] = target: GTP binding domain of Ras; details: literature, kinetic and filter binding measurements with radiolabeled GDP and GTP; cited from earlier work
[8] = target: Rac-1 and Rho-A members of the Rho subfamily; experiment: SPA and MST studies, summary range for Rho subfamily members; details: read-out: affinity of GTP for the binding domain of Rho subfamily members
Source text: as §2, §3

Rho-A [9] = target: T7, Rho-A (Homo sapiens (Human), UniProt P61586); experiment: MicroScale Thermophoresis (MST), GTP affinity for binding domain
T7 sequence (P61586 whole entry, the tested form may be a part): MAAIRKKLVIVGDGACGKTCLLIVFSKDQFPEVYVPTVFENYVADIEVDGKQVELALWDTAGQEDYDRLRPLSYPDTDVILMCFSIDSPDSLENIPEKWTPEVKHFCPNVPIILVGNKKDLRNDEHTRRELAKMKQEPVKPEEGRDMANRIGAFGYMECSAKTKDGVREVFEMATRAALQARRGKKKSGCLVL

K-Ras (Q61H/G12C) [10] = target: T1, K-Ras (Q61H/G12C); experiment: Scintillation Proximity Assay (SPA), GTP affinity for binding domain
Source text: as §1, §2, §3

KRas wild type [11] = target: T2, KRas wild type; experiment: as above
Source text: as §1, §2, §3

K-Ras (Q61H/G12D) [12] = target: T3, K-Ras (Q61H/G12D); experiment: as above
Source text: as §1, §2, §3

K-Ras (G12C) [13] = target: T4, K-Ras (G12C); experiment: as above
Source text: as §1, §2, §3

K-Ras (G12D) [14] = target: T5, K-Ras (G12D); experiment: as above
Source text: as §1, §2, §3

K-Ras (Q61H) [15] = target: T6, K-Ras (Q61H); experiment: as above
Source text: as §1, §2, §3

Rho-A [16] = target: T7, Rho-A; experiment: as above
Rac-1 [17] = target: T8, Rac-1 (Homo sapiens (Human), UniProt P63000); experiment: MicroScale Thermophoresis (MST), GTP affinity for binding domain
Rac-1 [18] = target: T8, Rac-1; experiment: Scintillation Proximity Assay (SPA), GTP affinity for binding domain
[19] = target: K-Ras GTP binding domain across wild type and mutant K-Ras; experiment: SPA and MST studies, summary range across K-Ras forms; details: read-out: affinity of GTP for the K-Ras GTP binding domain
Source text: as §1, with “colleagues (referenced above)” for “colleagues”
as §2, §1
See Khawaja et al., “Scintillation proximity assay in lead discovery”, Expert Opin. Drug Discov., 2008 November; 3(11):1267-80 regarding SPA procedures. […]

T1 sequence (P01116-2 other isoform, or with tags, fused parts or gaps G12C/Q61H): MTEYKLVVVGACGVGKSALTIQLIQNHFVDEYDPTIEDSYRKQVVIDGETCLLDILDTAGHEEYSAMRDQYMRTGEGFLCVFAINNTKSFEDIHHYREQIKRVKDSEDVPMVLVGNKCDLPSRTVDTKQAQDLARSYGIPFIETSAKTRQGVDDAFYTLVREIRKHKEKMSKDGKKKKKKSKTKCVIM

- Kd (K-Ras (Q61H/G12C) [1]): 0.266 ± 0.057 µM
- Kd (KRas wild type [2]): 0.463 ± 0.002 µM
- Kd (K-Ras (Q61H/G12D) [3]): 0.268 ± 0.108 µM
- Kd (K-Ras (G12C) [4]): 0.207 ± 0.046 µM
- Kd (K-Ras (G12D) [5]): 0.244 ± 0.012 µM
- Kd (K-Ras (Q61H) [6]): 0.157 ± 0.021 µM
- Kd [8]: 0.12 to 0.17 µM
- Kd (Rho-A [9]): 0.13 ± 0.005 µM
- Kd (K-Ras (Q61H/G12C) [10]): 0.104 ± 0.011 µM
- Kd (KRas wild type [11]): 0.243 ± 0.015 µM
- Kd (K-Ras (Q61H/G12D) [12]): 0.135 ± 0.019 µM
- Kd (K-Ras (G12C) [13]): 0.258 ± 0.018 µM
- Kd (K-Ras (G12D) [14]): 0.27 ± 0.015 µM
- Kd (K-Ras (Q61H) [15]): 0.118 ± 0.011 µM
- Kd (Rho-A [16]): 0.129 ± 0.012 µM
- Kd (Rac-1 [17]): 0.166 ± 0.01 µM
- Kd (Rac-1 [18]): 0.151 ± 0.014 µM
- Kd [19]: 0.1 to 0.465 µM
SMILES: Nc1nc2c(ncn2[C@@H]2O[C@H](COP(=O)(O)OP(=O)(O)OP(=O)(O)O)[C@@H](O)[C@H]2O)c(=O)[nH]1 [GTP]
- affinity for the GTP binding domain of Ras [7]: single to double digit picomolar
